Test results taken from a melting point compilation (Tetko et al.; mined from patent text by program, amines drawn as free bases though some values may be those of a salt).

A melting point of 144 to 145 °C was found for `CC(C)(C)OC(=O)N1CCC[C@H]1Cn1ccc2c3ccn(Cc4ccc(F)cc4)c(=O)c3ccc21` in this work.
A melting point of 189 to 190 °C was found for `CCCN1CCN(Cc2nc(-c3ccc4c(c3)Nc3ccccc3S4)cs2)CC1` in this work.
For `Fc1ccccc1CN[C@H]1CCCN[C@H]1c1ccccc1` (relative stereo), the melting point was > 260 °C.
A melting point of 60 to 61 °C was found for `Fc1ccc(SC(F)(F)C(F)(F)C(F)(F)C(F)(F)C(F)(F)C(F)(F)C(F)(F)C(F)(F)Sc2ccc(F)cc2)cc1` in this work.
A melting point of 96 to 98 °C was found for `O=C(CCC(C(=O)O)N1C(=O)c2ccccc2C1=O)OCc1ccccc1` (stereo not drawn) in this work.
A melting point of 100 to 103 °C was found for `COc1ccc(CCC(=O)NCCc2cccc(C)c2)cc1OC` in this work.
A melting point of 166 to 167 °C was found for `O=C1c2ccccc2CN1c1ccc(OCCN2CCN(c3nsc4ccccc34)CC2)cc1` in this work.
A melting point of 240 to 241 °C was found for `NS(=O)(=O)c1cc2c(cc1Cl)C(=O)N(CCc1ccccn1)C2=O` in this work.
A melting point of 75 to 77 °C was found for `O=c1oc(OCCCCBr)c(Cl)c2ccccc12` in this work.
A melting point of 158 to 160 °C was found for `COc1cc2c(cc1OC)C(=CN1CCN(C(=O)c3ccco3)CC1)C(=O)N2` in this work.
A melting point of 82 °C was found for `CC1CCN(c2ccccc2C(=O)c2ccccc2)CC1` in this work.
A melting point of 156 to 159 °C was found for `CC(C)Cn1c(C(F)(F)F)nc2ccc(-n3c(=O)cc(C(F)(F)F)n(C)c3=O)cc21` in this work.
A melting point of 146 to 148 °C was found for `CCCCOc1nc2cccc(C(=O)OC)c2n1Cc1ccccc1-c1ccccc1-c1nnn[nH]1` in this work.
A melting point of 75 to 77 °C was found for `O=Cc1cccc(Oc2ccccc2)c1F` in this work.
A melting point of 115 to 129 °C was found for `CN(CCSC(=O)Cc1ccccc1Nc1c(Cl)cccc1Cl)CC1(SN=O)CCCCC1` in this work.
A melting point of 156 to 158 °C was found for `COc1ccc(NS(C)(=O)=O)nc1` in this work.
A melting point of 246 to 248 °C was found for `CNC1CCN(c2c(F)cc3c(=O)c(C(=O)O)cn(C4CC4)c3c2OC)CC1(C)C` (stereo not drawn) in this work.
A melting point of 166 to 169 °C was found for `Cc1noc(NS(=O)(=O)c2cccc(Cl)c2Cl)c1Br` in this work.
A melting point of 180 °C was found for `COc1cc2cc(C=O)c(Cl)nc2cc1F` in this work.
A melting point of 115 to 116 °C was found for `CCC(CC)N(O)C(=O)Nc1cc(C(F)(F)F)cc(C(F)(F)F)c1` in this work.
A melting point of 223 to 226 °C was found for `O=C(O)c1cc(=O)n(Cc2ccccc2S(=O)(=O)O)[nH]1` in this work.
A melting point of 94.8 to 96.9 °C was found for `CCCCOP(=O)(OCCCC)OCN1C(=O)NC(c2ccccc2)(c2ccccc2)C1=O` in this work.
A melting point of 112 to 115 °C was found for `CC(C)(C)OC(=O)NNC1CCN(C(=O)OC(C)(C)C)CC1` in this work.
A melting point of 237 to 240 °C was found for `CCN(CC)C(=O)c1cc(-c2ccccc2)c(=O)[nH]c1-c1c(Cl)cccc1C#N` in this work.
A melting point of 124 to 125 °C was found for `Cc1oc(-c2ccccc2)nc1COc1ccc(Cn2cc(CCC(=O)O)c(-c3ccccc3)c2)cc1` in this work.
A melting point of 161 to 163 °C was found for `CCc1noc(-c2ncc3[nH]c4cccc(CN5CCOCC5)c4c3c2COC)n1` in this work.
A melting point of 92 to 93 °C was found for `CN1Cc2cscc2Nc2cc(Cl)c(Cl)cc21` in this work.
A melting point of 120 °C was found for `CC(Oc1ccc([N+](=O)[O-])cc1F)c1c(Cl)cccc1Cl` (stereo not drawn) in this work.
A melting point of 84 to 92 °C was found for `OCC1OC(n2cnc3c(NCC4(c5cccs5)CCC4)ncnc32)C(O)C1O` (stereo not drawn) in this work.
A melting point of 165 to 174 °C was found for `O=C(O)C=CC1(Cc2ccccc2)C=CC=C(c2ccccc2)C1` (stereo not drawn) in this work.
A melting point of 62 to 65 °C was found for `O=C1C=NC(c2cccs2)(C(F)(F)F)O1` (stereo not drawn) in this work.
A melting point of 158 to 159 °C was found for `N#CCCNC(=O)c1cccc(-c2ccc(F)c3cc(Cc4cccc(C(F)(F)F)c4)oc23)c1` in this work.
A melting point of 94 to 97 °C was found for `CC(C)(C)c1ccc(OCC(O)CN2CCC3(CC2)CSC2=C(O3)c3cc(-c4ccccc4)ccc3C(=O)C2=O)cc1` (stereo not drawn) in this work.
A melting point of 145 °C was found for `O=C1c2nccc(Br)c2C(=O)c2c(-c3ccccc3NC(=O)C(F)(F)F)ccnc21` in this work.
A melting point of 179 to 180 °C was found for `CCOC(=O)C1=C(C(C)C)Nc2n[nH]cc2C1c1ccccc1OC` (stereo not drawn) in this work.
A melting point of 173 to 175 °C was found for `Cc1nc2c(N)nc3c(c2n1CCOCCS(C)(=O)=O)CCCC3` in this work.
A melting point of 94 °C was found for `O=Cc1cc(-c2ncc(C(F)(F)F)cc2Cl)ccc1Cl` in this work.
A melting point of 59 to 60 °C was found for `COc1cc2c(c(OC)c1/C=C/c1ccc(CN)cc1)C(C)(C)CCC2(C)C` in this work.
